Measured values as given in patent US10517833B2 (Cardiora Pty Ltd., priority 2011, dated 2019).
≈ marks a conversion by molar mass, not a printed value. Read-outs that look alike come from different tables or passages of the source.

Assays:
[1] = pH solubility studies on Milrinone (saturated solubility in different buffers); format: physicochemical; settings: for solubility at 24 h: thermodynamic from solid
Experimental: 1. pH 1.2-Hydrochloric Acid Buffer
3. pH 6.8-Phosphate Buffer
4. pH 7.4-Phosphate Buffer.
1. 2 mL buffer solution is placed into a 8 mL USP Type I clear glass vial (with screw cap and PTFE septa)
3. The addition of Milrinone is continued till the formation of saturated solution.
4. The pH of the saturated solution is measured after the addition of Milrinone.
5. If there is any difference in pH more than 0.1 units is observed when compared to the initial pH, the pH was adjusted with acid or base respectively to bring it to the initial pH.
6. The vials are closed with screw cap and kept for mixing using rotary tube shaker for 24 h.

[2] = after 6 hours (equilibrium), AHF patients, cited from earlier work
patients with severe CHF [3] = settings: cited from earlier work
[4] = system: patients with endstage CHF; settings: compared with the preceding 3 months; cited from earlier work
refractory HF patients = settings: 12-month study, cited from earlier work
[5] = system: patients undergoing CABG surgery; settings: ten minutes after drug administration versus before; cited from earlier work
[6] = system: pediatric patients at high risk for developing low cardiac output syndrome (LCOS); settings: cited from earlier work
[7] = system: pediatric patients with low cardiac output; settings: intravenous; cited from earlier work
[8] = system: patients with left ventricular dysfunction and/or pulmonary hypertension; settings: 50 μg/kg loading then 0.5 μg/kg/minute, n=15; cited from earlier work
[9] = system: patients with NYHA class III or IV HF and pulmonary vascular resistance of 200 dynes/s/cm or more; design: dose or concentration left out as unconfirmed; settings: cited from earlier work
patients with CHF = system: patients with CHF; design: dose or concentration left out as unconfirmed; settings: 15 minutes post-dosing, cited from earlier work
[10] = system: patients with class III or IV CHF; settings: after milrinone therapy; 5 patients at baseline; cited from earlier work
[11] = system: Human internal mammary arterial rings; settings: rings pretreated with milrinone; cited from earlier work
[12] = system: patients undergoing cardiopulmonary bypass; settings: cited from earlier work
patients with severe CHF [13] = settings: oral, cited from earlier work

## Cc1[nH]c(=O)c(C#N)cc1-c1ccncc1 [milrinone, 1,2-dihydro-3-cyano-6-methyl-5-(4-pyridinyl)-2(1H)-pyridinone]
[1]; acidic pH, decreases gradually with increase in pH
  solubility: highly soluble
[1]; aqueous buffer, pH 4.5 Acetate Buffer
  solubility at 24 h: 1830 µg/mL (≈ 8.64 mM)
[1]; aqueous buffer, pH 6.8 Phosphate Buffer
  solubility at 24 h: 742 µg/mL (≈ 3.51 mM)
[1]; aqueous buffer, pH 7.4 Phosphate Buffer
  solubility at 24 h: 603 µg/mL (≈ 2.85 mM)
[1]; hydrochloric acid buffer, simulated gastric fluid, pH 1.2 Hydrochloric Acide Buffer
  solubility at 24 h: 25400 µg/mL (≈ 120 mM)
[2]; continuous infusion 0.25 μg/kg after loading dose
  plasma milrinone concentration: 97 ng/mL
[2]; continuous infusion 0.5 μg/kg after loading dose
  plasma milrinone concentration: 197 ng/mL
[2]; continuous infusion 0.75 μg/kg after loading dose
  plasma milrinone concentration: 284 ng/mL
Patients with severe CHF [3]; after median short-term infusion 75 μg/kg IV, from 27 at baseline
  left ventricular end-diastolic pressure: 18 mmHg
Patients with severe CHF [3]; following a 7.5 mg oral dose, 10 patients on drug for 6 months or longer
  increase in left ventricular ejection fraction: 27%
Patients with severe CHF [3]; intravenous
  decrease in mean arterial pressure: 6%
  increase in peak positive first derivative of left ventricular pressure (dP/dT): 28%
  increase in resting heart rate: 8%
Patients with severe CHF [3]; oral therapy, average 29 mg daily, up to 11 months
  fever, thrombocytopenia, or gastrointestinal toxicity: No evidence
[4]
  drop in number of hospitalizations: fourfold
Refractory HF patients; from 21 in previous year
  emergency room admissions: 10
Refractory HF patients; from 75 in previous year
  hospital admissions: 34
Refractory HF patients; from 528 in previous year
  hospital days: 150
[5]
  change in IMA flow: 24%
[6]; high-dose group, within 36 hours
  patients who developed LCOS: 9.6%
[6]; high-dose group
  patients with prolonged hospital stays (longer than 15 days): 13.5%
[6]; low-dose group versus placebo, not statistically significant
  RRR of LCOS: 34%
[6]; low-dose group
  patients who developed LCOS: 17.7%
  patients with prolonged hospital stays (longer than 15 days): 8.2%
[7]
  average peak plasma concentration: 235 ng/mL
  mean decrease in blood pressure: 12%
[8]
  weaning from cardiopulmonary bypass: all patients were successfully weaned
[9]; at 5 minutes
  mean decrease in pulmonary vascular resistance: 31%
[9]
  duration of response: at least 20 minutes
Patients with CHF; from 3.9
  pulmonary vascular resistance: 2.5 Wood units
Patients with CHF; from 4.0
  Cardiac output: 5.1 L/min
Patients with CHF; from 20
  pulmonary capillary wedge pressure: 15 mmHg
Patients with CHF; from 35
  mean pulmonary artery pressure: 28 mmHg
[10]
  inducible VT during programmed right ventricular stimulation: none of the patients experienced inducible VT
[11]
  vasoconstriction by K+, ET-1, U46619 and phenylephrine: significantly less vasoconstricition
[12]; after CPB, versus control group, 0.5 μg/kg/minute for 24 hours
  Plasma concentrations of IL1-beta and IL6: significantly lower
[12]; versus controls
  concentrations of cyclic adenosine monophosphate: significantly increased
Patients with severe CHF [13]; at 1 year of therapy
  mortality rate: 63%
Patients with severe CHF [13]; at 6 months
  mortality rate: 39%
Patients with severe CHF [13]; average 27 mg/day
  patients with adverse effects: 11%
  patients with drug withdrawal due to adverse effects: 4%
Patients with severe CHF [13]; within 1 month of therapy, remaining 94 patients
  patients improved by at least one New York Heart Association functional class: 51%

## CNC[C@H](O)c1ccc(O)c(O)c1 [epinephrine]
[5]
  change in IMA flow: unchanged
